From EP0610377B1, “TRI-SUBSTITUTED TETRAHYDROFURAN ANTIFUNGALS” (SCHERING CORPORATION, priority 1991, dated 1993)

Columns and labels:
C. albicans C-43 = assay: Candida systemic model in CF1 mice infected IV with C. albicans C-43, oral treatment; type: in vivo; conditions: for %SURVIVAL: day 4 post-infection; for CFUs (GM): day 4, geometric mean of the logarithms of CFU remaining in the kidneys (dead mice counted as 10^9)
Protocol: The compounds of Examples 23-26 and itraconazole, fluconazole, and saperconazole were tested for in vivo oral antifungal activity in a Candida systemic model using CF1 male mice , average weight 20 g, Harlan Sprague Dawley, Inc., Indianapolis, Ind. infected by IV injection into the tail vein of C. albicans C-43 (5 million CFUs). […] Oral efficacy was measured after four (4) days by percent survival and by the number of organisms remaining in the kidneys i.e., the Colony Forming Units (CFUs). The mice were sacrificed and the kidneys of individual mice were homogenized in sterile saline, diluted and spread onto Mycosel agar. Colony counts were determined after 48 hours at 37°C. For calculation of geometric means, mice that died during the experiment were considered to have 10^9 CFUs/kidneys (based on numerous previous experiments).

Candida = Candida vaginal infection in a hamster model; type: in vivo; conditions: result in words
[1] = 10 MPK PO in PEG-200, 1 a day x 4 days
[2] = 25 MPK PO in PEG-200, 1 a day x 4 days
[3] = 50 MPK PO in PEG-200, 1 a day x 4 days
[4] = 1 MPK PO in PEG-200, 1 a day x 4 days

| SMILES | %SURVIVAL (C. albicans C-43; [1]) | CFUs (GM) (C. albicans C-43; 10 MPK PO in PEG-200) | %SURVIVAL (C. albicans C-43; [2]) | CFUs (GM) (C. albicans C-43; 25 MPK PO in PEG-200) | %SURVIVAL (C. albicans C-43; [3]) | CFUs (GM) (C. albicans C-43; 50 MPK PO in PEG-200) | %SURVIVAL (C. albicans C-43; [4]) | CFUs (GM) (C. albicans C-43; 1 MPK PO in PEG-200) | oral activity in the Candida systemic model compared with itraconazole (C. albicans C-43; doses of 50, 25 and 10 mpk, each dissolved in PEG-200, result in words) | activity against a Candida vaginal infection compared with itraconazole and saperconazole (Candida) |
| --- | --- | --- | --- | --- | --- | --- | --- | --- | --- | --- |
| CCC(C)n1ncn(-c2ccc(N3CCN(c4ccc(OCC5COC(Cn6cncn6)(c6ccc(Cl)cc6Cl)O5)cc4)CC3)cc2)c1=O (stereo not drawn) [Itraconazole, reference compound] | 0% | 9.00 | 0% | 9.00 | 60% | 6.68 | – | – | – | – |
| CC[C@H](C)n1ncn(-c2ccc(N3CCN(c4ccc(OC[C@@H]5CO[C@@](Cn6cncn6)(c6ccc(F)cc6F)C5)cc4)CC3)cc2)c1=O [Example 24, (-)-[(5R)-cis]-4-[4-[4-[4-[[5-(2,4-Difluorophenyl)-5-(1H-1,2,4-triazol-1-ylmethyl)tetrahydrofuran-3-yl]methoxy]phenyl]-1-piperazinyl]phenyl]-2,4-dihydro-2-[(1S)-(1-methylpropyl)]-3H-1,2,4-triazol-3-one] | 40% | 7.42 | 100% | 5.14 | 100% | 4.99 | 30% | 7.88 | more active orally | more active |
| CC[C@@H](C)n1ncn(-c2ccc(N3CCN(c4ccc(OC[C@@H]5CO[C@@](Cn6cncn6)(c6ccc(F)cc6F)C5)cc4)CC3)cc2)c1=O [Example 23] | 50% | 6.78 | 80% | 5.90 | 90% | 5.62 | 10% | 8.57 | – | – |
